# Biological target: T1, Complement C1s subcomponent (Homo sapiens, UniProt P09871)
# T1 sequence (P09871 whole entry): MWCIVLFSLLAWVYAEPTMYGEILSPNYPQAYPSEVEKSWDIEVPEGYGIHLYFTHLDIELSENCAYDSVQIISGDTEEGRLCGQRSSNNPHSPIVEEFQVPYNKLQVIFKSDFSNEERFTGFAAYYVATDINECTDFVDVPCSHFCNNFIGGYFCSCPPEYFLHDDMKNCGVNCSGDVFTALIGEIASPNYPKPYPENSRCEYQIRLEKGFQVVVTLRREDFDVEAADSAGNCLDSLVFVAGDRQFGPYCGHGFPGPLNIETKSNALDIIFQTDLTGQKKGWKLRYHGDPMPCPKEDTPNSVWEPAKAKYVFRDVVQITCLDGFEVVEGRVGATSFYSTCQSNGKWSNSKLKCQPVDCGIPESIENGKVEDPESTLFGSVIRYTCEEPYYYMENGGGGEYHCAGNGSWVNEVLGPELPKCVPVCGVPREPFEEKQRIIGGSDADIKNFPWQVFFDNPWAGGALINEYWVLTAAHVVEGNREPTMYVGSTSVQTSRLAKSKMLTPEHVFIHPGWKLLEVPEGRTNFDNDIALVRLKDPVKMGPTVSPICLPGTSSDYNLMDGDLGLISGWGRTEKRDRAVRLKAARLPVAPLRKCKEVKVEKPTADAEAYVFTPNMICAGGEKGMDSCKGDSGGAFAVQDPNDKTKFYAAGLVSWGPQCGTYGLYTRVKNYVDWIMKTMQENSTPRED
# Test: C1s inhibitor IC50 values, dose response, biochemical (AID 787)
row,IC50 [µM],SMILES
1,> 50,"CCC(C)N1CC23C=CC(O2)C(C(=O)OCc2ccccc2)C3C1=O (configuration not stated) [3-sec-Butyl-4-oxo-10-oxa-3-aza-tricyclo[5.2.1.0*1,5*]dec-8-ene-6-carboxylic acid benzyl ester]"
2,> 50,"NC(=O)C1(N2CCCCC2)CCN(C(=O)Nc2ccccc2C(F)(F)F)CC1 [4-(1-piperidinyl)-N1-[2-(trifluoromethyl)phenyl]piperidine-1,4-dicarboxamide]"
3,> 50,COCCCNC(CC(=O)Nc1ccccc1C(=O)OC)C(=O)O (configuration not stated) [4-(2-carbomethoxyanilino)-4-keto-2-(3-methoxypropylamino)butyric acid]
4,> 50,CCOC(=O)N1CCN(C(=O)CN(c2cccc(C)c2)S(=O)(=O)c2ccc(C)cc2)CC1 [4-[2-(3-methyl-N-(4-methylphenyl)sulfonylanilino)-1-oxoethyl]-1-piperazinecarboxylic acid ethyl ester]
5,> 50,"CCCCn1c(-c2cc(Cl)ccc2OC)n[nH]c1=S [4-butyl-3-(5-chloro-2-methoxyphenyl)-1H-1,2,4-triazole-5-thione]"
6,> 50,CC(C)NS(=O)(=O)c1cc(C(=O)O)ccc1Cl [4-chloranyl-3-(propan-2-ylsulfamoyl)benzoic acid]
7,> 50,"O=C(Nc1nccs1)c1ccc(Cl)c(S(=O)(=O)N2CCOCC2)c1 [4-chloranyl-3-morpholin-4-ylsulfonyl-N-(1,3-thiazol-2-yl)benzamide]"
8,> 50,"O=C(Nc1nccs1)c1ccc(Cl)c(S(=O)(=O)N2CCCCC2)c1 [4-chloranyl-3-piperidin-1-ylsulfonyl-N-(1,3-thiazol-2-yl)benzamide]"
9,> 50,"O=C(Oc1ccc(Cl)cc1-n1c(O)ccc1O)c1ccco1 [4-chloro-2-(2,5-dioxo-1-pyrrolidinyl)phenyl 2-furoate]"
10,> 50,"CCn1c(CCn2ccnc2C)n[nH]c1=S [4-ethyl-5-[2-(2-methyl-1H-imidazol-1-yl)ethyl]-2,4-dihydro-3H-1,2,4-triazole-3-thione]"
11,> 50,CCc1c(C(=O)NCc2cnn(C)c2)csc1C [4-ethyl-5-methyl-N-[(1-methyl-1H-pyrazol-4-yl)methyl]-3-thiophenecarboxamide]
12,> 50,CCOC(=O)c1sc(NC(=O)c2cc(S(=O)(=O)N3CCOCC3)ccc2C)nc1C [4-methyl-2-[(2-methyl-5-morpholinosulfonyl-benzoyl)amino]thiazole-5-carboxylic acid ethyl ester]
13,> 50,Cc1ccc(C(=O)Nc2nccs2)cc1S(=O)(=O)N1CCCCC1 [4-methyl-3-(1-piperidinylsulfonyl)-N-(2-thiazolyl)benzamide]
14,> 50,"Cc1csc(NC(=O)c2ccc(C)c(S(=O)(=O)N3CCCCC3)c2)n1 [4-methyl-N-(4-methyl-1,3-thiazol-2-yl)-3-piperidin-1-ylsulfonyl-benzamide]"
15,> 50,CC(=O)NC(=O)NC1CSCC1OC(C)=O (configuration not stated) [4-{[(acetylamino)carbonyl]amino}tetrahydro-3-thienyl acetate]
16,> 50,"CCc1ccc(C2CC(c3ccccc3Cl)Nc3nc(N)nn32)cc1 (configuration not stated) [5-(2-chlorophenyl)-7-(4-ethylphenyl)-1,5,6,7-tetrahydro-[1,2,4]triazolo[1,5-a]pyrimidin-2-amine]"
17,> 50,"COc1ccc(CNC(=O)c2cc(-c3ccc(OC)c(OC)c3)on2)cc1 [5-(3,4-dimethoxyphenyl)-N-(4-methoxybenzyl)isoxazole-3-carboxamide]"
18,> 50,CC(C)NC(=O)c1cc(-c2ccc(Br)cc2)on1 [5-(4-bromophenyl)-N-isopropyl-isoxazole-3-carboxamide]
19,> 50,Cc1ccc(-c2cc(C(=O)NCc3ccccn3)no2)cc1 [5-(4-methylphenyl)-N-(2-pyridinylmethyl)-3-isoxazolecarboxamide]

row,IC50 [µM],SMILES
1,> 50,Cc1ccccc1S(=O)(=O)Cc1ccc(C(=O)NCc2cccnc2)o1 [5-(o-tolylsulfonylmethyl)-N-(3-pyridylmethyl)-2-furamide]
2,> 50,"CCOC(=O)c1ccc(CSc2nncn2N)o1 [5-[[(4-amino-1,2,4-triazol-3-yl)thio]methyl]-2-furancarboxylic acid ethyl ester]"
3,> 50,N#Cc1cnn(CC2CCCCC2)c1N [5-amino-1-(cyclohexylmethyl)-4-pyrazolecarbonitrile]
4,> 50,"Cc1cc(NC(=O)c2cc3nc(C4CC4)cc(C(F)(F)F)n3n2)no1 [5-cyclopropyl-N-(5-methyl-1,2-oxazol-3-yl)-7-(trifluoromethyl)pyrazolo[1,5-a]pyrimidine-2-carboxamide]"
5,> 50,Cc1ccc(CCNC(=O)C2CCC(=O)N2Cc2cccnc2)cc1 (configuration not stated) [5-keto-N-[2-(p-tolyl)ethyl]-1-(3-pyridylmethyl)pyrrolidine-2-carboxamide]
6,> 50,"CCOc1cc2[nH]c(=S)n(CC3CCCO3)c(=O)c2cc1OCC (configuration not stated) [6,7-diethoxy-3-(2-oxolanylmethyl)-2-sulfanylidene-1H-quinazolin-4-one]"
7,> 50,"O=C(Cn1c(=O)oc2cc(S(=O)(=O)N3CCc4ccccc43)ccc21)N1CCCCC1 [6-(2,3-dihydroindol-1-ylsulfonyl)-3-(2-oxidanylidene-2-piperidin-1-yl-ethyl)-1,3-benzoxazol-2-one]"
8,> 50,"CC(=O)c1cc2c(cc1NC(=O)C1CC=CCC1C(=O)O)OCO2 (configuration not stated) [6-[(6-acetyl-1,3-benzodioxol-5-yl)carbamoyl]cyclohex-3-ene-1-carboxylic acid]"
9,> 50,"Cc1coc2c(C)c3oc(=O)c4c(c3cc12)CCCC4 [7,10-dimethyl-1,2,3,4-tetrahydro-[1]benzofuro[6,5-c]isochromen-5-one]"
10,> 50,"CCOc1ccc(C2CC(c3cccc(Cl)c3)n3nc(N)nc3N2)cc1 (configuration not stated) [7-(3-chlorophenyl)-5-(4-ethoxyphenyl)-1,5,6,7-tetrahydro-[1,2,4]triazolo[1,5-a]pyrimidin-2-amine]"
11,> 50,"COc1cc(C(Nc2ccccn2)c2ccc3ccc(C)nc3c2O)cc(OC)c1O (configuration not stated) [7-[(3,5-dimethoxy-4-oxidanyl-phenyl)-(pyridin-2-ylamino)methyl]-2-methyl-quinolin-8-ol]"
12,> 50,"Cc1nnc(SC(=O)N2c3ccccc3Sc3ccccc32)s1 [10-phenothiazinecarbothioic acid S-(5-methyl-1,3,4-thiadiazol-2-yl) ester]"
13,> 50,"COc1ccc(Nc2cc(C)nc3nc(C)nn23)c(OC)c1 [(2,4-dimethoxyphenyl)-(2,5-dimethyl-[1,2,4]triazolo[1,5-a]pyrimidin-7-yl)amine]"
14,> 50,COc1ccccc1Nc1nc(-c2cccs2)cs1 [(2-methoxyphenyl)-[4-(2-thienyl)thiazol-2-yl]amine]
15,> 50,COc1ccc(CC(=O)OCc2cc3ccccc3[nH]c2=O)cc1 [(2-oxidanylidene-1H-quinolin-3-yl)methyl 2-(4-methoxyphenyl)ethanoate]
16,2.37,"COc1ccc(C(=O)n2nc(-c3ccco3)nc2SC)cc1OC [(3,4-dimethoxyphenyl)-[3-(2-furanyl)-5-(methylthio)-1,2,4-triazol-1-yl]methanone]"
17,> 50,"Cc1noc(C)c1COC(=O)c1ccccc1NC(=O)Cc1ccccc1 [(3,5-dimethyl-1,2-oxazol-4-yl)methyl 2-(2-phenylethanoylamino)benzoate]"
18,> 50,COc1ccc(C(=O)n2ccc(C)n2)cc1Br [(3-bromanyl-4-methoxy-phenyl)-(3-methylpyrazol-1-yl)methanone]

# — BindingDB's records for doi:10.7270/Q2MP51PC (Pcmd, 2008)
